Consider seven molecules from article PMC2831097, “Inhibition of L-Arginine Metabolizing Enzymes by L-Arginine-Derived Advanced Glycation End Products” (Journal of Clinical Biochemistry and Nutrition, 2010).

Like-named read-outs stand apart in the source and are kept apart here.

In experiment [1] the target is T1, recombinant eNOS (Bos taurus, UniProt P29473).
T1 construct: purchased Sigma Chemicals (St. Louis, MO)
The experiment can be described thus: NOS activity assay, conversion of L-[14C(U)]-arginine to L-[14C(U)]-citrulline, eNOS. The settings on record: 50 µM L-arginine, 30 min at 37°C, pH 7.4; means ± SD (n = 4). Format: biochemical, bovine. From the text:
(§1) L-Arginine, ADMA, N^G-hydroxy-L-arginine (NOHA), nicotinamide adenine dinucleotide phosphate reduced form (NADPH), flavin adenine dinucleotide (FAD), flavin mononucleotide (FMN), (6R)-5,6,7,8-tetrahydrobiopterin (BH4), recombinant eNOS (from bovine), iNOS (from mouse macrophage), Dowex® AG50W-X8 cation-exchange resin (mesh size, 100–200) were all purchased from Sigma Chemicals (St. Louis, MO). Ultima Gold XR scintillation liquid was from PerkinElmer (Shelton, CA). Recombinant nNOS (from rat) and N^G-hydroxy-nor-arginine (nor-NOHA) were obtained from Cayman Chemicals. Arginase (from bovine liver) was from Alexis Biochemicals (Lausen, Switzerland). […] All other chemicals were obtained from Wako Pure Chemical Industries, Osaka, Japan.
(§2) The NOS activities were determined by monitoring the conversion of L-[^14C(U)]-arginine (Moravek, Brea, CA) to L-[^14C(U)]-citrulline as previously described. Recombinant enzymes of three isoforms of NOS (specific activity: eNOS 0.03, nNOS 2.9, iNOS 0.62 units/mg protein) (10 µl) were added to a reaction mixture (final volume of 100 µl) consisting of 50 mM HEPES buffer (pH 7.4), 1 mM NADPH, 4 µM FAD, 4 µM FMN, 10 µM BH4, 1 mg/L calmodulin, 2.5 mM CaCl2, 50 µM L-arginine and 0.5 µCi/ml of L-[^14C(U)]-arginine (specific activity: 8.14–11.1 GBq/mmol). After incubation for 30 min at 37°C, the reactions were terminated by addition of 0.5 ml of 20 mM HEPES (pH 5.5) containing 2 mM EDTA and 2 mM EGTA. Samples were passed through a 1 ml column of Dowex AG50W-X8 (Na^+-form) to remove unconverted L-[^14C(U)]-arginine. L-[^14C(U)]-Citrulline was eluted twice with 1 ml of distilled water, and the eluted fractions mixed with 10 ml of cocktail (Ultima Gold XR) were quantified using a liquid scintillation counter. A reaction mixture containing L-[^14C(U)]-arginine without the enzyme was incubated as a control to determine background counts.

Experiment [2] concerns the target T2, recombinant iNOS (Mus musculus, UniProt P29477).
T2 construct: purchased Sigma Chemicals (St. Louis, MO)
Briefly: NOS activity assay, conversion of L-[14C(U)]-arginine to L-[14C(U)]-citrulline, iNOS. Format: biochemical. The conditions noted are these: 50 µM L-arginine, 30 min at 37°C, pH 7.4; means ± SD (n = 4).
From the text: as §1, §2

Experiment [3] deals with T3, recombinant nNOS (Rattus norvegicus, UniProt P29476).
T3 construct: purchased Cayman Chemicals
The experiment can be described thus: NOS activity assay, conversion of L-[14C(U)]-arginine to L-[14C(U)]-citrulline, nNOS. Format: biochemical. The settings on record: 50 µM L-arginine, 30 min at 37°C, pH 7.4; means ± SD (n = 4).
From the text: as §1, §2

Experiment [4] has as its target T4, arginase (Bos taurus, UniProt Q2KJ64).
T4 construct: purchased Alexis Biochemicals (Lausen, Switzerland)
T4 sequence (Q2KJ64 1-322): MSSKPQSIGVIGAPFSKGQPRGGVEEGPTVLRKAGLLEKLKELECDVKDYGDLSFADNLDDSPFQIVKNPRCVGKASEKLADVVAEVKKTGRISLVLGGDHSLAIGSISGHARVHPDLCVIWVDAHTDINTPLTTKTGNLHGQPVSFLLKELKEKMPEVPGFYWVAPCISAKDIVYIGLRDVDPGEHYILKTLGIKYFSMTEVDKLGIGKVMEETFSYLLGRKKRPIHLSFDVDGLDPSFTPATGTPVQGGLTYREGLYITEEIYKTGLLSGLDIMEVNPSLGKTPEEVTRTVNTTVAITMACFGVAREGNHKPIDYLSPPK
Briefly: Arginase activity assay, conversion of L-[guanidine-14C]-arginine to [14C]-urea. Format: biochemical, bovine. The conditions noted are these: for IC50: 1 mM MnCl2, pH 9.6, 1 h at 37°C, means ± SD (n = 4); for inhibitory efficiency for arginase, fold weaker than NOHA: compared with NOHA (IC50 340 µM). From the text: L-Arginine, ADMA, N^G-hydroxy-L-arginine (NOHA), nicotinamide adenine dinucleotide phosphate reduced form (NADPH), flavin adenine dinucleotide (FAD), flavin mononucleotide (FMN), (6R)-5,6,7,8-tetrahydrobiopterin (BH4), recombinant eNOS (from bovine), iNOS (from mouse macrophage), Dowex® AG50W-X8 cation-exchange resin (mesh size, 100–200) were all purchased from Sigma Chemicals (St. Louis, MO). Ultima Gold XR scintillation liquid was from PerkinElmer (Shelton, CA). Recombinant nNOS (from rat) and N^G-hydroxy-nor-arginine (nor-NOHA) were obtained from Cayman Chemicals. Arginase (from bovine liver) was from Alexis Biochemicals (Lausen, Switzerland). L-NMMA was from Calbiochem, Darmstadt, Germany. All other chemicals were obtained from Wako Pure Chemical Industries, Osaka, Japan.
Assays for arginase activity were performed by monitoring the conversion of L-[guanidine-^14C]-arginine (Moravek, Brea, CA) to [^14C]-urea as previously described. Recombinant arginase (0.5 µg of protein, specific activity: 0.094 units/mg protein) (10 µl) was added to a mixture (final volume of 100 µl) containing 10 mM Tris-HCl buffer, pH 9.6, 1 mM MnCl2, and 0.16 µCi/ml of L-[guanidine-^14C]-arginine (specific activity: 1.85–2.22 GBq/mmol). After incubation for 1 h at 37°C, the reactions were terminated by addition of 0.4 ml of stop buffer containing 250 mM sodium acetate and 100 mM urea, pH 4.5. Samples were then passed through a 1 ml column of Dowex AG50W-8X (Na^+-form) to remove unmetabolized L-[guanidine-^14C]-arginine. [^14C]-Urea was eluted twice with 1 ml of distilled water, and the eluted fractions mixed with 10 ml of cocktail (Ultima Gold XR) were quantified using a liquid scintillation counter. A reaction mixture containing L-[guanidine-^14C]-arginine in the absence of enzyme was incubated as a control to determine background counts. The inhibitory effects of arginase were examined in the presence and absence of the test compounds at various concentrations.

In experiment [5] the target is T5, dimethylarginine dimethylaminohydrolase (DDAH) (Rattus norvegicus, UniProt O08557).
T5 construct: from tissue; host or cells: rat kidney homogenate supernatant
T5 sequence (O08557 whole entry): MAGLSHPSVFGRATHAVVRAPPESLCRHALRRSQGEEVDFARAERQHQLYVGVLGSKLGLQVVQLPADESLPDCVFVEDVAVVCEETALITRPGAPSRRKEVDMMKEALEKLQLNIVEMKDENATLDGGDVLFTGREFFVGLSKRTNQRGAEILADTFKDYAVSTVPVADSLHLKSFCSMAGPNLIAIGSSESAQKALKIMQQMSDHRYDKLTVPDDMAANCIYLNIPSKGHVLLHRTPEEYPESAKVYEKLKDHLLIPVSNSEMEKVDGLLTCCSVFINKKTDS
Briefly: DDAH activity assay, conversion of L-[3H]-NMMA to L-[3H]-citrulline by rat kidney homogenate. The format is biochemical. On the procedure: The DDAH activity was determined by monitoring the conversion of L-[4,5-^3H]-NMMA (American Radiolabeled Chemicals, Inc., St. Louis, MO) to L-[^3H]-citrulline as previously described. Rat kidney tissues (0.5 g) were homogenized in 1 ml of ice-cold 0.1 M sodium phosphate buffer (SPB, pH 6.5), and then centrifuged at 10,000 rpm for 5 min at 4°C. The supernatants were analyzed for protein content using a BCA protein reagent kit with bovine serum albumin as the standard. The supernatants were diluted with SPB to 1 mg protein in 50 µl, and then were added to a reaction mixture (a final volume of 100 µl) containing 0.1 M SPB (pH 6.5) and 0.1 µCi/ml of L-[^3H]-NMMA (specific activity: 1.48–2.96 TBq/mmol). After incubation for 1 h at 37°C, the reactions were terminated by keeping the tubes on ice for 5 min. Samples were then passed through a 1 ml column of Dowex AG50W-8X (Na^+-form) to remove unmetabolized L-[^3H]-NMMA. L-[^3H]-Citrulline was eluted twice with 1 ml of distilled water, and the eluted fractions mixed with 10 ml of cocktail (Ultima Gold XR) were quantified using a liquid scintillation counter. A reaction mixture containing L-[^3H]-NMMA in the absence of enzyme was added to the Dowex column to determine background counts. The effects of arginine derivatives on the enzyme activities in the presence and absence of the test compounds at various concentrations were examined.

Where [6] appears, read: rat kidney extracts, SPB pH 6.5, 1 h at 37°C, means ± SD (n = 4), read-out: IC50 DDAH.

For the molecule `CN(C)C(=N)NCCCC(N)C(=O)O` [ADMA, asymmetric N^G,N^G-dimethyl-L-arginine, reference compound], the figures for the concentration for half-maximal inhibition (IC50) in experiment [1], in experiment [2] and in experiment [3] were 16 ± 9 µM, 24 ± 1 µM and 23 µM, respectively.
Turning to `CC(NC(=N)NCCCC(N)C(=O)O)C(=O)O` (stereo not shown) [CEA, N^ω-carboxyethyl-arginine], the IC50 was 3870 ± 680 µM in experiment [1]; over 5000 µM in experiment [2]; over 5000 µM in experiment [3]; over 5000 µM in experiment [4]; over 5000 µM in experiment [5].
On to `N=C(NCCCC(N)C(=O)O)NCC(=O)O` (stereo not shown) [CMA, N^ω-Carboxymethyl-arginine], for which the IC50 in experiment [1] was 830 ± 36 µM; in experiment [2] it was 1160 ± 40 µM; in experiment [3], over 5000 µM; in experiment [4], 1470 ± 120 µM; in experiment [5], over 5000 µM. The “inhibitory efficiency for arginase, fold weaker than NOHA” value in experiment [4] is listed as “approximately 3 fold”.
On to `NC(CCCCNCC(=O)O)C(=O)O` (stereo not shown) [CML, carboxymethyl-lysine], for which the half-inhibitory concentration (IC50) was over 5000 µM in experiment [1]; over 5000 µM in experiment [2]; 1930 ± 300 µM in experiment [3]; 1060 ± 60 µM in experiment [4]; over 5000 µM in experiment [5] (setting [6]). The “inhibitory efficiency for arginase, fold weaker than NOHA” value in experiment [4] is recorded as “approximately 3 fold”.
Consider `CC1NC(NCCCC(N)C(=O)O)=NC1=O` (stereo not shown) [MG-H1, N^δ-(5-hydro-5-methyl-4-imidazolon-2-yl)-ornithine], for which the IC50 is 1280 ± 75 µM in experiment [1]; 2970 ± 560 µM in experiment [2]; 4170 ± 380 µM in experiment [3]; over 5000 µM in experiment [4]; over 5000 µM in experiment [5] (setting [6]).
As for `NC(=NCCCC(N)C(=O)O)NO` [NOHA, N^G-hydroxy-L-arginine, reference compound], in experiment [4], 340 ± 12 µM corresponded to half-maximal inhibition (IC50).
`N=C(NO)NCC[C@H](N)C(=O)O` [Nor-NOHA, N^G-hydroxy-nor-arginine, reference compound]: the IC50 stood at 230 ± 26 µM in experiment [4] and 1770 ± 250 µM in experiment [5].

By IC50 is commonly meant the concentration that gives 50% inhibition.
